From US20260234157A1, “COMPOUND AND METHOD FOR TARGETED DEGRADATION OF ANDROGEN RECEPTOR” (Gan & Lee Pharmaceuticals Co., Ltd., priority 2023, published 2026) come the findings set out here.

Where a chain is given by its changes, count along the chain named. A value given as a limit tells only on which side of the number the result lay.

The first test concerns the target T1, AR protein (Homo sapiens, UniProt P10275, T878A).
T1 construct: degradation activity of the compounds disclosed in the present disclosure on AR protein in LNCaP cells; host or cells: LNCaP FGC
T1 sequence (P10275 1-920 T878A): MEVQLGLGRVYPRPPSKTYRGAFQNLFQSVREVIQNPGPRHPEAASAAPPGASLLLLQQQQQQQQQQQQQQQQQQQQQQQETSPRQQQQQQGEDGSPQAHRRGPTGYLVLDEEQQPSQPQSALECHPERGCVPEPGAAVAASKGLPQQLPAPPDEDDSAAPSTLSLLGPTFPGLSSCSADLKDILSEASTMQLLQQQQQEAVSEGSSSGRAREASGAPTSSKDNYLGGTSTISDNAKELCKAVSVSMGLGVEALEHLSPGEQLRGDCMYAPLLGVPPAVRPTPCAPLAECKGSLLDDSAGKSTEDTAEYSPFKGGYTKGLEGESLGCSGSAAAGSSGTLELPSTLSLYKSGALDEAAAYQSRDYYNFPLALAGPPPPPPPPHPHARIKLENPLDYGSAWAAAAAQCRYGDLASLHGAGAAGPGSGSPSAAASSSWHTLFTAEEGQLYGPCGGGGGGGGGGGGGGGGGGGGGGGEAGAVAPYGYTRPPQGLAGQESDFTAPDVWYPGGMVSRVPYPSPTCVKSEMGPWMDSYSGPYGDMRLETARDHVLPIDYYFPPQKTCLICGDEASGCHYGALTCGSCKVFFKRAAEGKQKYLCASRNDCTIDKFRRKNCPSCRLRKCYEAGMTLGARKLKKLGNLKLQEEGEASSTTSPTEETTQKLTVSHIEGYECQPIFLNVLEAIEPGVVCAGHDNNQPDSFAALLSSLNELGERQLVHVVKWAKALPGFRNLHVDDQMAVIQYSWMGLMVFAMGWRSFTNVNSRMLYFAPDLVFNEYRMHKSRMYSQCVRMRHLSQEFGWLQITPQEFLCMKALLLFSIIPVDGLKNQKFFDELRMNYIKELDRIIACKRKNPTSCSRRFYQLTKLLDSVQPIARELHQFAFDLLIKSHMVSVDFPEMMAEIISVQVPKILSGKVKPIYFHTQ
As to the kind of experiment: Degradation of AR protein in LNCaP cells (Western blot). The test is classed as cell-based. To be noted: LNCaP cells, compound 10 nM, 8 hours, Western blot grayscale, GAPDH internal reference; read-out: Degradation rates of the AR protein in LNCaP cells, 10 nM (%). In a few lines: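 Percent AR degradation was derived from GAPDH-normalised Western blot band intensities (infrared detection) in LNCaP lysates.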
On to `N#Cc1ccc(O[C@H]2CC[C@H](NC(=O)c3ccc(N4CC[C@H](CN5CCC6(CC5)COc5cc7c(cc5C6)C(=O)N(C5CCC(=O)NC5=O)C7=O)C4)nn3)CC2)cc1Cl` (stereo partly drawn) [Compound 74], for which the inhibition at 0.01 µM came to 39%.

For `COC1(CN2CC3(CCc4ccc5c(c4O3)C(=O)N(C3CCC(=O)NC3=O)C5)C2)CCN(c2ccc(C(=O)N[C@H]3CC[C@H](Oc4ccc(C#N)c(Cl)c4)CC3)nn2)CC1` (stereo partly drawn) [Compound 138], the inhibition at 0.01 µM is -9%.

As to `N#Cc1ccc(O[C@H]2CC[C@H](NC(=O)c3ccc(N4CCC(F)(CN5CC6(CCc7ccc8c(c7O6)C(=O)N(C6CCC(=O)NC6=O)C8)C5)CC4)nn3)CC2)cc1Cl` (stereo partly drawn) [Compound 139], the inhibition at 0.01 µM came out at 42%.

The test is the same for the next values; noted with them: LNCaP cells, compound 100 nM, 8 hours, Western blot grayscale, GAPDH internal reference; read-out: Degradation rates of the AR protein in LNCaP cells, 100 nM (%).
Turning to `N#Cc1ccc(O[C@H]2CC[C@H](NC(=O)c3ccc(N4CC[C@H](CN5CCC6(CC5)COc5cc7c(cc5C6)C(=O)N(C5CCC(=O)NC5=O)C7=O)C4)nn3)CC2)cc1Cl` (stereo partly drawn) [Compound 74], the inhibition at 0.1 µM is 79%.

For the compound `COC1(CN2CC3(CCc4ccc5c(c4O3)C(=O)N(C3CCC(=O)NC3=O)C5)C2)CCN(c2ccc(C(=O)N[C@H]3CC[C@H](Oc4ccc(C#N)c(Cl)c4)CC3)nn2)CC1` (stereo partly drawn) [Compound 138], the inhibition at 0.1 µM is -1%.

With `N#Cc1ccc(O[C@H]2CC[C@H](NC(=O)c3ccc(N4CCC(F)(CN5CC6(CCc7ccc8c(c7O6)C(=O)N(C6CCC(=O)NC6=O)C8)C5)CC4)nn3)CC2)cc1Cl` (stereo partly drawn) [Compound 139], the inhibition at 0.1 µM is 11%.

Another test concerns the target T2, AR protein (Homo sapiens, UniProt P10275).
T2 construct: degradation activity of the compounds disclosed in the present disclosure on AR protein in VCaP cells; host or cells: VCaP
T2 sequence (P10275 1-920): T1 sequence (P10275 1-920 T878A) with A878T
Briefly: Degradation of AR protein in VCaP cells (Western blot). In kind it is cell-based. To be noted: compound at 10 nM, 8 hours, read-out: Degradation rate of the AR protein in VCaP cells, 10 nM (%). In a few lines:
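Western blot readout: AR band grayscale normalised to GAPDH, used to derive degradation rate. Lysates came from VCaP cells exposed to compound for 8 h, with solvent controls run in parallel.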
Turning to `N#Cc1ccc(O[C@H]2CC[C@H](NC(=O)c3ccc(N4CC[C@H](CN5CCC6(CC5)COc5cc7c(cc5C6)C(=O)N(C5CCC(=O)NC5=O)C7=O)C4)nn3)CC2)cc1Cl` (stereo partly drawn) [Compound 74], the inhibition at 0.01 µM turned out to be 47%.

Take `COC1(CN2CC3(CCc4ccc5c(c4O3)C(=O)N(C3CCC(=O)NC3=O)C5)C2)CCN(c2ccc(C(=O)N[C@H]3CC[C@H](Oc4ccc(C#N)c(Cl)c4)CC3)nn2)CC1` (stereo partly drawn) [Compound 138]: the inhibition at 0.01 µM is -28%.

As for `N#Cc1ccc(O[C@H]2CC[C@H](NC(=O)c3ccc(N4CCC(F)(CN5CC6(CCc7ccc8c(c7O6)C(=O)N(C6CCC(=O)NC6=O)C8)C5)CC4)nn3)CC2)cc1Cl` (stereo partly drawn) [Compound 139], the inhibition at 0.01 µM was -16%.

The test is the same for the next values; noted with them: compound at 100 nM, 8 hours, read-out: Degradation rate of the AR protein in VCaP cells, 100 nM (%).
Consider `N#Cc1ccc(O[C@H]2CC[C@H](NC(=O)c3ccc(N4CC[C@H](CN5CCC6(CC5)COc5cc7c(cc5C6)C(=O)N(C5CCC(=O)NC5=O)C7=O)C4)nn3)CC2)cc1Cl` (stereo partly drawn) [Compound 74], for which the inhibition at 0.1 µM came out at 65%.

Regarding `COC1(CN2CC3(CCc4ccc5c(c4O3)C(=O)N(C3CCC(=O)NC3=O)C5)C2)CCN(c2ccc(C(=O)N[C@H]3CC[C@H](Oc4ccc(C#N)c(Cl)c4)CC3)nn2)CC1` (stereo partly drawn) [Compound 138], the inhibition at 0.1 µM stood at 7%.

For `N#Cc1ccc(O[C@H]2CC[C@H](NC(=O)c3ccc(N4CCC(F)(CN5CC6(CCc7ccc8c(c7O6)C(=O)N(C6CCC(=O)NC6=O)C8)C5)CC4)nn3)CC2)cc1Cl` (stereo partly drawn) [Compound 139], the inhibition at 0.1 µM is -31%.

The next test deals with LNCaP FGC cells. Briefly: Inhibition of proliferation of LNCaP cells (WST-8). In kind it is cell-based. To be noted: Homo sapiens, LNCaP, 96 h, LNCaP FGC cells, 96 hours, WST-8 absorbance at 450 nm; read-out: IC50 for inhibiting the proliferation of LNCaP cells. As to the method:
The cells were cultured in a cell culture incubator with 5% CO2 at 37° C. overnight. […] On the sixth day, 96 well plates were taken out, and 20 μL of WST-8 (Beytime, C0040) reagent was added to each well.
Take `N#Cc1ccc(O[C@H]2CC[C@H](NC(=O)c3ccc(N4CC[C@H](CN5CCC6(CC5)COc5cc7c(cc5C6)C(=O)N(C5CCC(=O)NC5=O)C7=O)C4)nn3)CC2)cc1Cl` (stereo partly drawn) [Compound 74]: the IC50 turned out to be 0.6 µM.

In the case of `COC1(CN2CC3(CCc4ccc5c(c4O3)C(=O)N(C3CCC(=O)NC3=O)C5)C2)CCN(c2ccc(C(=O)N[C@H]3CC[C@H](Oc4ccc(C#N)c(Cl)c4)CC3)nn2)CC1` (stereo partly drawn) [Compound 138], the IC50 is 71.5 µM.

Regarding `N#Cc1ccc(O[C@H]2CC[C@H](NC(=O)c3ccc(N4CCC(F)(CN5CC6(CCc7ccc8c(c7O6)C(=O)N(C6CCC(=O)NC6=O)C8)C5)CC4)nn3)CC2)cc1Cl` (stereo partly drawn) [Compound 139], the IC50 is 52.3 µM.

The next test relates to VCaP cells. As to the kind of experiment: Inhibition of proliferation of VCaP cells (WST-8). In kind it is cell-based. As to conditions: Homo sapiens; VCaP cells, 168 hours, WST-8 absorbance at 450 nm; read-out: IC50 for inhibiting the proliferation of VCaP cells. In a few lines: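 Proliferation was read by WST-8 on day nine. Cells were VCaP FGC, seeded at 15000 cells per well in 10% FBS DMEM and kept at 37° C with 5% CO2.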
Take `N#Cc1ccc(O[C@H]2CC[C@H](NC(=O)c3ccc(N4CC[C@H](CN5CCC6(CC5)COc5cc7c(cc5C6)C(=O)N(C5CCC(=O)NC5=O)C7=O)C4)nn3)CC2)cc1Cl` (stereo partly drawn) [Compound 74]: the IC50 was determined as 0.6 µM.

On to `COC1(CN2CC3(CCc4ccc5c(c4O3)C(=O)N(C3CCC(=O)NC3=O)C5)C2)CCN(c2ccc(C(=O)N[C@H]3CC[C@H](Oc4ccc(C#N)c(Cl)c4)CC3)nn2)CC1` (stereo partly drawn) [Compound 138], for which the IC50 is greater than 90 µM.

On to `N#Cc1ccc(O[C@H]2CC[C@H](NC(=O)c3ccc(N4CCC(F)(CN5CC6(CCc7ccc8c(c7O6)C(=O)N(C6CCC(=O)NC6=O)C8)C5)CC4)nn3)CC2)cc1Cl` (stereo partly drawn) [Compound 139], for which the IC50 is greater than 90 µM.
